Measurements: US9363996B2, “Compositions and method for blocking ethylene response in field crops using 3-(cy-clopropyl-l-enyl)-propanoic salt” (Yissum Research Development Company of the Hebrew …, priority 2009, dated 2016)

Legend:
[1] = tested on: young cotton leaf explants; assay: Ethylene-induced petiole abscission of young cotton leaf explants; format: in vivo, cotton (Gossyium hirsutum barbadense L.)
Method: (1) Abscission—This is a very sensitive model system for studying the effects of plant hormones. Ethylene induces the process of abscission, while auxin delays it. In the laboratory the experimental system is based on plant organ explants, which include the abscission zone. Abscission is induced by exposure to ethylene and at the termination of the experiment the number of abscised organs, usually either leaf blades or petioles are counted and the fraction of abscission is calculated. In the case of fruit, the decrease in fruit retention force is analyzed. In cotton, when WS-CPD (the ethylene-action antagonist herein disclosed) is tested, the whole plants or explants are pretreated by spraying with the antagonist, dissolved in a phosphate buffer solution (10-20 mM, pH 7.0) including 0.1% commercially available Kinetic™ as surfactant, and left to incubate for a predetermined time, usually between 6 and 24 h. The plants or explants are then further exposed for 24 h to ethylene gas (5 to 20 μL L^−1). The plants or explants are then ventilated and incubated for the required time under controlled conditions. At the end of the experiment the percentage of abscission is determined. (2) Chlorophyll degradation—This is a standard model for studying senescence. Plant material (whole plants, excised leaves or leaf discs) are pretreated. In cotton, tobacco and wheat, when WS-CPD is tested, the whole plants or explants are pretreated by spraying with the antagonist, dissolved in phosphate buffer solution (10-20 mM, pH 7.0) including 0.1% commercially available Kinetic™ surfactant, and left to incubate for a predetermined time, usually between 6 and 241. […] At the end of the experiment a dimethylsulfoxide (DMSO) extract of the plant tissue is prepared, and the chlorophyll content of the extract is determined by spectrophotometric analysis. […] The extent of ethylene-induced epinasty of leaves is determined by measuring the change of the angle between the petiole and the stem shoot or blade. […]

wheat seedlings = assay: Third leaf growth of young wheat seedlings exposed to ethylene; format: in vivo, wheat (Triticum turgidum var. 'Gdera')
Solubility in water = format: physicochemical; settings: 25° C.
Method: WS-CPD is highly soluble in water at 25° C. (≧400 mg mL^−1), FIG. 63. Upon heating, decomposition without melting occurs, beginning at 265-270° C.

solubility (Solubility in water): ≥ 400 mg/mL
Structure (SMILES): O=C([O-])CCC1=CC1.[Na+] [WS-CPD, 3-cyclopropyl-1-enyl-propanoic sodium salt]
abscission percentage of explants ([1]; WS-CPD 300 μg mL^−1): lower than the air control treatment
decrease of abscission ([1]; WS-CPD 10 to 30 μg mL^−1, throughout the experiment, ethylene-treated explants): about 20%
reversal of the inhibitory effect of ethylene on third leaf growth (wheat seedlings; WS-CPD 40 μg mL^−1, 1.6 ethylene): 100%
inhibitory effect of ethylene on third leaf growth (wheat seedlings; WS-CPD 4 and 40 μg mL^−1 spray at day 10, ethylene 1.6 to 40 μg L^−1 (so in the source) 24 h later for two days): effectively antagonized
